Data as given in patent publication US10610514B2, “Composition comprising compound inhibiting interactions of MBD2 and P66α for anti-metastasis and prevention and treatment of cancer disease” (Industry-University Cooperation Foundation Hanyang …, priority 2016, dated 2020).
Where two headings read alike, the source gives them in different places. One block for each molecule: values may come before it.

Assays:
[1] = tested on: leukemia cell lines (KCL22, MEL, THP-1, HL60, HEL, U937, KG-1, and K562); assay: MTT assay cell viability, leukemia cell lines; format: cell-based
Procedure: (§1) Lymphoid leukemia cell lines (Raji, Molt4, IM9, Jurkat, CCRF-CEM, and Daudi), leukemia cell lines (KCL22, MEL, THP-1, HL60, HEL, U937, KG-1, and K562), and solid tumor cell lines (HCT116 colorectal cancer cell line, BEAS2B lung epithelial cell line, 293T fetus kidney epithelial cell line, Hep3B liver cancer cell line, MCF7 and MDA-MB-231 breast cancer cell lines, MCF10A breast epithelial cell line, and U373MG brain tumor cell line) were treated with a compound at different concentrations (0, 1, 10, 100, 1,000, and 10,000 μM), cultured for 4 days, and subjected to MTT assay every 24 hours to measure cell viability. 48 hours after the treatment with the compound, a morphological change of the cells was observed, and cell images were taken. IC50 values caused by the treatment with each compound were calculated using the Graph Prism Pad 6 program.

[2] = tested on: solid tumor cell lines (HCT116, BEAS2B, 293T, Hep3B, MCF7, MDA-MB-231, MCF10A, U373MG); assay: MTT assay cell viability, solid tumor cell lines; format: cell-based; settings: average
Procedure: as §1

[3] = tested on: lymphoid leukemia cell lines (Raji, Molt4, IM9, Jurkat, CCRF-CEM, and Daudi); assay: MTT assay cell viability, lymphoid leukemia cell lines; format: cell-based; settings: average
Procedure: as §1

[4] = tested on: MEL cell line; assay: Cell cycle analysis by FACS and karyotype analysis of MEL cells; format: cell-based, murine
[5] = tested on: MEL cells; assay: Western blotting of cell cycle- and apoptosis-associated marker proteins in MEL cells; format: cell-based, murine
From the text: In addition, as a western blotting result to show the change in the expression of cell cycle-associated marker proteins according to the concentration and time of the treated compound of Formula 1, it was confirmed that all activities of cyclin/CDK controlling the checkpoints of the cell cycle were decreased. Therefore, referring to FIG. 13, it was seen that overall progression of the cell cycle was inhibited by the treatment with the compound of Formula 1, and aneuploidy and cell death were induced.

[6] = tested on: HCT116 and MDA-MB-231 cell lines; assay: Western blotting of EMT-associated marker proteins; format: cell-based; settings: 10 μM, 48 hours
From the text: Therefore, the compounds of Formulas 1 and 2 according to the present invention may be excellent leading materials in the development of therapeutic agents for metastasis.

[7] = tested on: MDA-MB-231, HCT116, MEL and HL60 cell lines; assay: In vitro cancer cell migration and invasion, Trans-well insert; format: cell-based; settings: 10 μM, in comparison with controls, all cell lines
Procedure: Accordingly, to confirm whether EMT and metastasis are inhibited by the treatment with the compounds of Formulas 1 and 2, in vitro cancer cell migration and invasion abilities were analyzed, and the result is shown in FIGS. 3A and 3B below.

[8] = tested on: target gene expression of the CP2c transcription factor complex; assay: Luc reporter assay, GATA1 enhancer, 293T cells transduced with CBP complex protein overexpression vectors; format: cell-based
Procedure: Therefore, Luc reporter assay was carried out to analyze whether a decrease in the target gene expression of the CP2c transcription factor complex due to MBD2 or p66α overexpression is restored by the treatment with a compound for inhibiting the interaction between the MBD2 and p66α selected in the previous step (FIGS. 2A and 2B). Here, as a CP2c transcription factor target sequence that controls Luc reporter gene expression, a GATA1 enhancer was used, and 293T cells were transduced with various combinations of CBP complex protein overexpression vectors and then used for analysis.

[9] = tested on: MEL cell line; assay: Leukemia cell line-implanted animal model (MEL cell line intravenously injected into immunodeficient mice); format: in vivo
From the text: The result is shown in FIGS. 9A, 9B, 9C, 9D, 9E, 9F, 9G, 9H, 9I and 9J below.
However, a white blood cell level was reduced due to the treatment with the compound at a slightly higher concentration, but the histological characteristics of the major organs as well as the overall hematological characteristics were normal (FIGS. 9D and 9E).
Meanwhile, to confirm whether the compound of Formula 1 can treat tumors generated in the animal models, the MEL cell line was intravenously injected, after 7 days, the compound of Formula 1 was intravenously injected five times at intervals of three days, and then, on the 21th day, the mice were sacrificed to be subjected to analysis by the above-described method (FIG. 9F).

[10] = tested on: various cancer cell lines; assay: MTT assay cell viability, all cancer cell lines; format: cell-based
Procedure: as §1

[11] = 16.5 μM and 40 μM, western blotting over time
[12] = dosing started 7 days after MEL injection, day 21

SMILES: NCC(=O)NC[C@H]1COc2ccccc2O1 [Formula 1]
IC50 ([1]; average, read-out: IC50 average): 50 µM
IC50 ([1]; range over cell lines, read-out: IC50 values): 6 to 218 µM
IC50 [2]: 1780 µM
IC50 [3]: 213 µM
G0/G1 group ([4]; FACS): reduction
G2/M group ([4]; FACS): increase
aneuploidy cell group ([4]; FACS): significant increases
subG1 (cell group dying by apoptosis) ([4]; FACS): significant increases
aneuploidy ([4]; FACS after synchronization at G1/S by thymidine double block): remarkably induced
chromosomes (karyotype analysis) ([4]; karyotype analysis): abnormally increased
apoptosis-associated caspases [5, 11]: activated
expression of the apoptosis inhibition marker [5, 11]: decreased
expression of the apoptosis promotion marker [5, 11]: increased
activities of cyclin/CDK controlling the checkpoints of the cell cycle ([5]; western blotting, by concentration and time): decreased
expression of epithelial cell marker proteins (β-catenin, E-cadherin) [6]: decreased
expression of mesenchymal cell marker proteins (Snail, slug, N-cadherin) [6]: significantly decreased
effect on migration and invasion abilities [7]: significant inhibitory effect
restoration of the inhibition of target gene expression by MBD2 overexpression [8]: did not restore
restoration of the inhibition of target gene expression by p66α overexpression [8]: restored
side effects in normal tissue/blood ([9]; MEL-implanted mice): no side effects
histological characteristics of the major organs and overall hematological characteristics ([9]; dosing from MEL injection, day 16): normal
histological characteristics of the major organs and overall hematological characteristics [9, 12]: normal
tumor cells in the blood, spleen and liver [9, 12]: no tumor cells
splenomegaly caused by the MEL cells ([9]; dosing started 7 days after MEL injection, i.v. five times at intervals of three days, day 21, concentration-dependent): disappeared
splenomegaly caused by the MEL cells ([9]; i.v. 12.2, 24.4, 48.8 μg/Kg five times at intervals of three days from MEL injection, day 16, concentration-dependent): disappeared
tumor cells in the blood, spleen and liver ([9]; i.v. five times at intervals of three days from MEL injection, day 16): no tumor cells
white blood cell level ([9]; slightly higher concentration, day 16): reduced

IC50 values (in words) ([10]; uniform in all cancer cell lines): slightly higher IC50 values
SMILES: CC(C)(C)OC(=O)N1CC[C@@H](CC(=O)CN)C1 [Formula 2]
expression of epithelial cell marker proteins (β-catenin, E-cadherin) [6]: decreased
expression of mesenchymal cell marker proteins (Snail, slug, N-cadherin) [6]: significantly decreased
effect on migration and invasion abilities [7]: significant inhibitory effect
restoration of the inhibition of target gene expression by MBD2 overexpression [8]: restored
restoration of the inhibition of target gene expression by p66α overexpression [8]: did not restore
growth and cell death of cell lines ([10]; various cancer cell lines): effects of inhibiting the growth and inducing cell death
